Measured values from US8557265B2, “Use of a synergistic composition as a therapeutic agent of disinfectant” (Bode Chemie GmbH, priority 2007, dated 2013).

Tests used:
Type in all cases: cell-based
[1] = system: genomic DNA and extrachromosomal plasmid (Yep351) of recombinant Escherichia coli strain; test: Breakdown of genomic DNA and extrachromosomal plasmid DNA in microorganisms, gel electrophoresis (FIG. 1); details: E. coli suspension, lysozyme 5 minutes, then 5 minutes with 5 μl of solution
Protocol: A recombinant Escherichia coli strain with an extrachromosomal plasmid (Yep351) was cultivated overnight in LB amp medium. Every 5 μl of this E. coli suspension were treated with 5 μl of lysozyme solution (1 mg/ml) for 5 minutes and then incubated for another 5 minutes with 5 μl of the indicated solutions (1-5). After adding bromophenol blue, the samples were placed in the gel bags and the DNA molecules were separated by electrophoresis.

[2] = system: Bacillus subtilis; test: Test for antimicrobial action, colony count after plating; details: cell count of 106 in 50 μl mixed 1:1; incubation time 2 minutes; plated, 37° C.
Protocol: (§1) Fresh cultures of the indicated microorganisms were adjusted to a cell count of […] in 50 μl and then mixed in a 1:1 ratio with 50 μl of water 70% ethanol or the invented agent (100 mM ascorbic acid, 10 mM FeCl3, and 0.5% SDS). After an incubation time of 2 minutes, the 100 μl batches with the bacteria were plated out on corresponding growth dishes. After an incubation of 1-3 days at 28° C. (Saccharomyces cerevisiae and Candida parapsilosis) or 37° C. (Escherichia coli and Bacillus subtilis), the number of grown colonies was determined. In the batches with sterile water, all microorganisms survived.

[3] = system: Candida parapsilosis; test: as above; details: cell count of 106 in 50 μl mixed 1:1; incubation time 2 minutes; plated, 28° C.
Protocol: as §1

[4] = system: Escherichia coli; test: as above; details: cell count of 106 in 50 μl mixed 1:1; incubation time 2 minutes; plated, 37° C.
Protocol: as §1

[5] = system: Saccharomyces cerevisiae; test: as above; details: cell count of 106 in 50 μl mixed 1:1; incubation time 2 minutes; plated, 28° C.
Protocol: as §1

SMILES | effect on DNA molecules in gel electrophoresis [1] | number of grown colonies [2] | number of grown colonies [3] | number of grown colonies [4] | number of grown colonies [5]
CCCCCCCCCCCCOS(=O)(=O)[O-].[Na+] [sample 3, SDS] | lysis of the cells |  |  |  | 
CCO [70% ethanol, ethanol] | precipitation of the cell lysate and the DNA | 0 | 0 | 0 | 0
